Experimental data from patent US10897891B2, “Compositions and methods for prolonged cell storage” (Board of Regents, The University of Texas System, priority 2015, dated 2021).
“Also recorded” adds a separate entry of the source.

Tests used:
platelets = assay: Platelet degranulation by anti-von Willebrand factor immunofluorescent staining (Experiment D); type: cell-based, human; conditions: 1.5% PEG-400, 5° C., 8 days, rotation
Protocol: Functional, non-degranulated, platelets should retain vWF at high concentrations in their alpha granules. To study the effect of PEG on gradual loss or preservation a direct fluorescent antibody immunoflorescent staining protocol was developed. Slides were air dried for 5 min and immersed in 0.5% fresh paraformaldehyde in 10% PBS pH 7.3 for 10 min. Slides were soaked for 2 min in PBS with 5 changes. Subsequently excess PBS was drained and slides immersed for 2 min in ice cold dry acetone. Again, slides were drained and excess acetone was removed with 5 PBS washings of 2 min each. Slides were then immersed in 0.5% filter sterilized BSA in PBS and allowed to block overnight at 4° C. After draining excess block solution, 50 ul of primary antibody (Polyclonal rabbit anti-vWF-PB9062, Boster Biological Technology, Pleasanton, Calif.) at 5 ng/ml was applied immediately over the platelet spot and incubated in a humidity chamber for 4 hr at 4° C. Slides were washed with 5 changes of 0.5% BSA/PBS for 5 min each. Excess fluid was again removed and FITC labeled goatd anti-rabbit, Sigma F0382, was added 50 ug/ml in 0.5% BSA/PBS for 3 hr. […]
von Willebrand Factor (vWF) is a major component of platelet alpha granules. […] No post photographic image adjustments were made to images analyzed.

[1] = system: macrophage like cell line U937; assay: Platelet binding to the macrophage like cell line U937 (Experiment E); type: cell-based, human; conditions: 2% PEG-400, 5° C. overnight
Protocol: U937 is a cell line derived from a patient with Acute Myelo-Monocytic Leukemia. […] In this binding experiment 5 day old platelets from the blood bank are held in a standard storage media referred to as ACD on a flat-bed shaker under standard conditions of rotation. ‘ACD’ contains […], Sodium Citrate, and Dextrose. These platelets were split into two conditions, control and 2%/0 PEG-400, in a 12 well plate format with a final volume of 100 ul per well. All wells were incubated overnight at 5° C. All wells where then stained with fluorescein Diacetate (Sigma product F7378). This agent was protected from light and 1 mg was dissolved in 10 ml acetone and stored at −70° C. FDA was diluted […] in PBS immediately prior to use (Miyamoto el al., 2000.) All platelet wells received 2.5 ug final per well of fluorescein diacetate (FA) contained in 50 ul PBS. After 1 hr at room temp a further 100 ul of PBS was added and the 12 well plates were centrifuged at 3000 g for 20 min at RT. 150 ul excess fluid was carefully removed from all wells and discarded. Platelets were gently suspended. […] Wells were examined and photographed with an inverted fluorescence microscope. […]
Control conditions had standard 75 ul of ACD suspended platelets, plus 25 μl PBS in the control wells. […] Wells were examined with an inverted fluorescence microscope.

[2] = dogs; cited from earlier work

Polyethylene glycol [PEG-400]
vWF degranulation at 5° C. (platelets): sufficient to prevent vWG degranulation; also recorded: prevented vWG degranulation
adsorption of cold stored platelets to U937 cells [1]: substantially block adsorption of cold stored platelets to macrophage like cells
adsorption of cold stored platelets to U937 cells ([1]; listed as PEG): only a few attached strongly fluorescent platelets
toxic endpoint [2]: ~8 g/kg
toxic endpoint for the whole animal [2]: 0.8%
